These results are taken from patent US7151175B2, “Propenecarboxylic acid amidoxime derivatives, a process for the preparation thereof, and pharmaceutical compositions containing the same” (N-Gene Research Laboratories Inc., priority 2000, dated 2006).

Each structure is given as a SMILES string. Counter-ions that a name gives are not always drawn.

Series [1] has as its target T1, poly(adenosine diphosphate ribose)polymerase (PARP) (Rattus norvegicus, UniProt P27008).
T1 construct: was isolated from rat liver according to the article of Shah, G. M; from tissue; host or cells: rat liver
The series can be described thus: Determination of PARP inhibition, in vitro, on isolated enzyme. In kind it is biochemical. The conditions noted are these: PARP isolated from rat liver; four parallel measurements; read-out: PARP I0.5 (converted). How it is done:
The poly(adenosine diphosphate ribose)polymerase was isolated from rat liver according to the article of Shah, G. M. [Anal. Biochem., 227, 1–13 (1995)]. The PARP activity was determined in 130 μl of reaction mixture consisting of 100 mM of tris-HCl buffer, pH 8.0, 10 mM of MgCl2, 10% glycerol, 1.5 mM of DTT, 100 μg of (32P) or (3H) NAD+, 10 μg of activated DNA, 10 μg of histone. [Tris-HCl is tris(hydroxymethyl)aminomethane hydrochloride.] After 10 minutes of incubation time, the reaction was stopped with 8% perchloric acid, and the protein was separated through centrifugation (10 minutes, 10.000×g). The precipitate was washed with 8% perchloric acid three times, and the radioactivity bound to the protein was measured with a scintillation counter.

The subject of series [2] is male NMRI mice. The series can be described thus: Hepatotoxicity induced by acetaminophene (paracetamol). The format is in vivo, mouse. To be noted: dose of 50 mg/kg. As for the experimental part:
It was examined whether the liver damage induced with paracetamol can be prevented by the novel compounds of the formula I. The symptom of liver damage was characterized by an increase of the GOT and […] enzyme levels induced with paracetamol. The experiments were carried out on male NMRI mice of 30–40 g body weight. The animals were pretreated with the compounds of the formula I, perorally, for 7 days. On day 8, the mice were subjected to starvation for 12 hours, then a 500 mg/kg p.o. dose of paracetamol and a given dose of a compound of the formula I were administered. After 16 hours, the animals were bled to death and the activity of the GOT and GPT enzymes was measured in the serum. The results were analyzed by the non-parametric test of Mann and Whitney. As to the results, the average and the standard deviation are given wherein p<0.05 was considered as significant.

Series [3] has as its system C57BI mice. Nature of the series: Experimental model of Parkinson's disease (MPTP). The format is in vivo, mouse. To be noted: four times 20 mg/kg MPTP intraperitoneally. The text has this: Parkinson's disease (PD) is a common disabling idiopathic neurodegenerative disorder characterized by tremor, bradykinesia, rigidity and balance difficulties. These motor abnormalities are caused by the depletion of brain dopamine that results from the loss of dopaminerg neurons in the substantia nigra pars compacta. The analysis of the action of 1-methyl-4-phenyl-1,2,3,6-tetrahydropyridine (MPTP) having selective neurotoxicity shed light to the possible patomechanism of the Parkinson's disease. MPTP induces parkinsonian motor signs in both human and animals [Dexter, A. et al., Ann. Neurol., 35, 38–44 (1994)]. MPTP treatment results in a loss of dopaminergic neurons in the substantia nigra pars compacta, as well. Lewy body-like eosinophilic inclusions appear in the damaged neurons and the activity of mitochondrial complex I is also diminished in these cells. These alterations are characteristic for oxidative stress [Shapira, A., Adv. Neurol., 69, 161–165 (1996)]. The biologically active metabolite of MPTP is MPP [1-methyl-4-phenylpyridinium]. MPP inhibits directly complex I in mitochondria leading to increased generation of superoxide anion. […] After centrifugation (14000×g, 10 min, 4° C.), 20 μl of supernatant were injected onto a reverse phase catecholamine column (ESA, Bedford) and dopamine content was evaluated. […]

For series [4], the system named is conscious rabbits. Nature of the series: Hyperinsulinaemic euglycaemic clamp studies (insulin sensitivity). In kind it is in vivo, rabbit. As for the experimental part: It was investigated whether treatment with the compounds of the invention effected insulin sensitivity of normal and hypercholesterolaemic conscious rabbits. Adult male white New Zealand rabbits weighing 3–3.5 kg, housed in an animal room (12-hour light/dark periods a day, temperature of 22–25° C., humidity of 50–70%), fed commercial laboratory chow and tap water ad libitum were used throughout. The experimental period commenced after a two-week adaptation period. The rabbits were randomized into two main groups. Half of the animals were continued to feed normal rabbit chow, whereas the second group animals were fed chow enriched with 1.5% cholesterol over a period of eight week. Each main group was divided into four treatment groups: • untreated group, • group treated with a compound of the invention, 10 mg/kg i.v. dose twice a day over 4 days, • group treated with 7-nitroindazole as NOS inhibitor: administration of 5 mg/kg of 7-nitroindazole over 5 min. preceded insulin administration with a 5-min inter-infusion interval, • group treated with both 7-nitroindazole and the compound of the invention as described.
The animals were anaesthetized and polyethylene catheters were inserted into two major branches of the right jugular vein and the left carotid artery. The catheters were exteriorized through the back of the neck and filled with physiological saline containing heparin. […]

Series [5] concerns male SPRD rats. The series can be described thus: Heart ischemic failure and reperfusion arrhythmia (LAD occlusion/reperfusion). In kind it is in vivo, rat. To be noted: 5 min LAD occlusion, 10 min reperfusion. As for the experimental part: Experiments were carried out in male SPRD rats (acceptable body weight range: 300–350 g). The animals were anesthetized by the administration of pentobarbital [5-ethyl-5-(1-methylbutyl)-2,4,6-(1H,3H,5H)-pyrimidintrione] (60 mg/kg intraperitoneally), and remained breathing spontaneously. The animals were ventilated with a respirator (manufactured by Kutesz, Hungarian Academy of Sciences) by using a trachea cannule inserted after tracheotomy. The standard lead of the ECG II was monitored. The right femoral artery was catheterized and connected to a pressure transducer (BPR-01, Experimetria, Hungary) and a preamplifier. The pulsotachometer (HG-M, Experimetria, Hungary) was started by the pulsating signal of arterial blood pressure. The external jugular vein was cannulated for drug administration. After thoracotomy, a silk (braided, coated 4-0) was placed under the left anterior coronary (LAD) artery. After a few minutes' stabilization period, a 5 min occlusion of LAD artery was applied followed by a 10 min reperfusion period. ECG was recorded in the normal state at the start and in the above periods. From the data of ECG, the span of time of ventricular tachycardia and fibrillation was determined in sec. In addition, the survival ratios in the treated animal groups were recorded.

T1 sequence (P27008 whole entry): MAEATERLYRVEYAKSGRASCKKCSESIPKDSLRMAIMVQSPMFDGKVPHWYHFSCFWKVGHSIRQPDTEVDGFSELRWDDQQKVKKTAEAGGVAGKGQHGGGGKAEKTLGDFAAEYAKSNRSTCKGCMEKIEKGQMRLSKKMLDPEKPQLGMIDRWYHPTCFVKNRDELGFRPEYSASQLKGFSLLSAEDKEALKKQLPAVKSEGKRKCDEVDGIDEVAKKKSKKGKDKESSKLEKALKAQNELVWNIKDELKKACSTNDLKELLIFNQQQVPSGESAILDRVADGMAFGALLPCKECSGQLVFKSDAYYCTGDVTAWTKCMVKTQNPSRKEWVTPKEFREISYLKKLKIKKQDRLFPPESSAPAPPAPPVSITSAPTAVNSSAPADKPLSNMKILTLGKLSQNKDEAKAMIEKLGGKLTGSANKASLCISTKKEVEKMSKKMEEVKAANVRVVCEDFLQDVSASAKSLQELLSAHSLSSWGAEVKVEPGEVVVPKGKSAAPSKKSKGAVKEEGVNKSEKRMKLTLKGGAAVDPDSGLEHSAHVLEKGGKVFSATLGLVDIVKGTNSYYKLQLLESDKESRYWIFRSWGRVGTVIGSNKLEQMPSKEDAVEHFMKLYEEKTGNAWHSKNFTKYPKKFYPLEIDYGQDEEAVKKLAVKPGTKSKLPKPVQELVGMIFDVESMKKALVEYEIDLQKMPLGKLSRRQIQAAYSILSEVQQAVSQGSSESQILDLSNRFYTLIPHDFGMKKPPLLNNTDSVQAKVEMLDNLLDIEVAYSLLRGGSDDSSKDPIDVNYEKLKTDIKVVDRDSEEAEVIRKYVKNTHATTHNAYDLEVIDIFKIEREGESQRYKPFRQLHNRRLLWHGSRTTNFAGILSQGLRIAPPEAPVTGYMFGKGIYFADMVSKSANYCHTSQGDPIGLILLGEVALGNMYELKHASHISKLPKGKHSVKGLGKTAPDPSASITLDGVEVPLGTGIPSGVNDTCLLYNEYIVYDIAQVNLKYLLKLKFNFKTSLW

Consider `Cc1cccc(C)c1NCC(O)Cn1c(C=Cc2ccccc2)noc1=O` (centres unmarked) [Example 9, 3-Styryl-4-[3-(2,6-dimethylanilino)-2-hydroxypropyl]-Δ^2-1,2,4-oxadiazolin-5-one hydrochloride], for which the IC50 in series [1] was 19.2 µM. For the molecule `O=c1onc(C=Cc2ccccc2)n1CC(O)CN1CCCC1` (centres unmarked) [Example 3, 3-Styryl-4-(3-pyrrolidino-2-hydroxypropyl)-Δ^2-1,2,4-oxadiazolin-5-one-hydrochloride], the IC50 in series [1] was 25.4 µM. For `CC(C)(C)NCC(O)Cn1c(C=Cc2ccccc2)noc1=O` (centres unmarked) [Example 6, 3-Styryl-4-[3-(tert.-butylamino)-2-hydroxypropyl]-Δ^2-1,2,4-oxadiazolin-5-one hydrochloride], the IC50 in series [1] is 53.6 µM.

As for `CN1CCN(CC(O)CNC(C=Cc2ccccc2)=NO)CC1` (centres unmarked) [Example 14, N-[3-(1-Methyl-4-piperazinyl)-2-hydroxypropyl]cinnamic acid amidoxime trihydrogen maleate], the IC50 in series [1] was 28.3 µM. Take `ON=C(C=Cc1ccccc1)NCC(O)CN1CCCCC1` (centres unmarked) [Example 12, N-(3-Piperidino-2-hydroxypropyl)cinnamic acid amidoxime]: the IC50 in series [1] was 59.3 µM. Moreover, the hepatoprotective effect result in series [2] is on record as “very favourable hepatoprotective effect”.

In the case of `O=c1onc(C=Cc2ccccc2)n1CC(O)CN1CCOCC1` (centres unmarked) [Example 5, 3-Styryl-4-(3-morpholino-2-hydroxypropyl)-Δ^2-1,2,4-oxadiazolin-5-one hydrochloride], the IC50 in series [1] is 39.2 µM. On to `CN1CC=C(c2ccccc2)CC1` [MPTP, 1-methyl-4-phenyl-1,2,3,6-tetrahydropyridine], for which the “decrease in striatal dopamine content” value in series [3] worked out at 80%. Turning to `O=c1onc(C=Cc2ccccc2)n1CC(O)CN1CCc2ccccc2C1` (centres unmarked) [Example 8, 3-Styryl-4-[3-(1,2,3,4-tetrahydro-2-isoquinolyl)-2-hydroxypropyl]-Δ^2-1,2,4-oxadiazolin-5-one hydrochloride], the IC50 in series [1] is 31.8 µM. With `O=c1onc(C=Cc2ccccc2)n1CC(O)CN1CCCCCC1` (centres unmarked) [Example 4, 3-Styryl-4-(3-hexamethyleneimino-2-hydroxypropyl)-Δ^2-1,2,4-oxadiazolin-5-one hydrochloride], the IC50 in series [1] was 40.8 µM. Turning to `COc1ccc(C=Cc2noc(=O)n2CC(O)CN2CCCCC2)cc1OC` (centres unmarked) [Example 10, 3-(3,4-Dimethoxystyryl)-4-(3-piperidino-2-hydroxypropyl)-Δ^2-1,2,4-oxadiazolin-5-one hydrochloride], the IC50 in series [1] was 71.9 µM. In the case of `O=[N+]([O-])c1cccc2cn[nH]c12` [7-nitroindazole], the “effect on the insulin resistance ameliorating effect of the compounds of the invention” value in series [4] (experimental hypercholesterolaemia) was “blocked the insulin resistance ameliorating effect”. Also, in series [4] (normal animals, 5 mg/kg 7-nitroindazole), the “insulin resistance produced by the substance itself” value is given as “produced insulin resistance”. For the molecule `ON=C(C=Cc1ccccc1)NCC(O)CN1CCOCC1` (centres unmarked) [Example 13, N-(3-Morpholino-2-hydroxypropyl)cinnamic acid amidoxime dihydrogen maleate], the IC50 in series [1] was 65.5 µM. For the molecule `O=c1onc(C=Cc2ccccc2)n1CC(O)CN1CCCCC1` (centres unmarked) [Example 2, 3-Styryl-4-(3-piperidino-2-hydroxipropyl)-Δ^2-1,2,4-oxadiazolin-5-one hydrochloride], the IC50 in series [1] was 27.3 µM. Further, the “longer survival relative to the control group after reperfusion” value in series [5] is 50%. In the case of `C(=Cc1ccccc1)C1=NOC(CN2CCCCC2)CN1` (centres unmarked) [Example 16, 3-Styryl-6-(piperidinomethyl)-4H-5,6-dihydro-1,2,4-oxadiazine], the IC50 in series [1] was 63.1 µM.
